Where no end group is shown, it is not given here.
How the values were obtained:
Assay in all cases: In vitro HLA-DR peptide binding assay
HLA DRB1*0405 = HLA DRB1*0405 (Homo sapiens, UniProt P01903+P01911, A100R/A169T/D86S/F76Y/I96L/K127E/L162R/M171V/N62H/P40V/Q125Y/R42H/S133A/S149N/S66Y/V115G/V209L/W38E)
HLA DRB1*1302 = HLA DRB1*1302 (Homo sapiens, UniProt P01903+P01911, A100E/A169T/K41T/L162R/M171V/P40S/Q125H/Q178H/Q39Y/Q99D/R42S/S66N/T262R/V115G/W38E/Y61H)
HLA DRB1*0404 = HLA DRB1*0404 (Homo sapiens, UniProt P01903+P01911, A100R/A169T/F76Y/I96L/K127E/L162R/M171V/N62H/P40V/Q125Y/R42H/S133A/S149N/S66Y/V209L/W38E)
HLA DRB1*0401 = HLA DRB1*0401 (Homo sapiens, UniProt P01903+P01911, A100K/A169T/F76Y/I96L/K127E/L162R/M171V/N62H/P40V/Q125Y/R42H/S133A/S149N/S66Y/V115G/V209L/W38E)
HLA DRB3*0101 = HLA DRB3*0101 (Homo sapiens, UniProt P01903+P79483)
HLA DRB1*0701 = HLA DRB1*0701 (Homo sapiens, UniProt P01903+P01911, A100R/A102G/A103Q/D57E/D86V/E43K/F76Y/K127E/L162R/M171V/P40G/Q125H/Q99D/R33Q/R42Y/R54Q/S133A/S66F/T210M/V115G/Y107V/Y59L/Y89S)
HLA DRB1*0101 = HLA DRB1*0101 (Homo sapiens, UniProt P01903+P01911, A100R/D57E/F55L/F60I/F76Y/I96L/L162R/M171V/P40L/Q125E/R42F/V115G/Y59C)
HLA DRB1*1101 = HLA DRB1*1101 (Homo sapiens, UniProt P01903+P01911, A100R/A169T/A87E/I96F/K41T/L162R/M171V/P40S/Q125H/Q178H/Q39Y/Q99D/R42S/S66Y/T262R/V115G/W38E)
Sequence of HLA DRB1*1101 (P01903 26-254 limits assumed, other chains not shown): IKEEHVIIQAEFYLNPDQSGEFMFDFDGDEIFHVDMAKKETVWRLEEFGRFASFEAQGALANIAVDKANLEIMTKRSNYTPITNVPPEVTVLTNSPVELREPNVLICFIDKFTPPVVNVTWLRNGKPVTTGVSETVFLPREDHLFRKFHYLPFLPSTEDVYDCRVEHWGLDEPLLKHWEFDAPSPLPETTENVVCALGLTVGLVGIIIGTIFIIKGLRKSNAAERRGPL

HLA DRB1*0301 = HLA DRB1*0301 (Homo sapiens, UniProt P01903+P01911, A100K/A102G/A103R/A169T/F55Y/I96L/K41T/L162R/M171V/P40S/Q125H/Q178H/Q39Y/R42S/S66N/T106N/T262R/W38E/Y61H)
Sequence of HLA DRB1*0301 (P01903 26-254 limits assumed, other chains not shown): as above

HLA DRB1*1501 = HLA DRB1*1501 (Homo sapiens, UniProt P01903+P01911)

Measured: IC50

Sequence of HLA DRB1*1302 (P01903 26-254 limits assumed, other chains not shown): as above

DPEDSALLEDPA [30.7]
> 5 µM: HLA DRB1*0405 | HLA DRB1*1302 | HLA DRB1*0404 | HLA DRB1*0401 | HLA DRB1*0701 | HLA DRB1*0101 | HLA DRB1*1101 | HLA DRB1*0301 | HLA DRB1*1501
1.62 µM: HLA DRB3*0101

HAPAAPANPGLI [34.1]
3.55 µM: HLA DRB1*0101
> 5 µM: HLA DRB1*0405 | HLA DRB1*1302 | HLA DRB1*0404 | HLA DRB1*0401 | HLA DRB3*0101 | HLA DRB1*0701 | HLA DRB1*1101 | HLA DRB1*0301 | HLA DRB1*1501

AYQQGVTVDSIG [24.2]
0.471 µM: HLA DRB1*0101
0.212 µM: HLA DRB1*0401
2.72 µM: HLA DRB1*0701
> 5 µM: HLA DRB1*0405 | HLA DRB1*1302 | HLA DRB1*0404 | HLA DRB3*0101 | HLA DRB1*1101 | HLA DRB1*0301 | HLA DRB1*1501

YQQGVTVDSIGM [24.3]
0.389 µM: HLA DRB1*0701
> 5 µM: HLA DRB1*0405 | HLA DRB1*1302 | HLA DRB1*0404 | HLA DRB3*0101 | HLA DRB1*0101 | HLA DRB1*1101 | HLA DRB1*0301 | HLA DRB1*1501
4.41 µM: HLA DRB1*0401

CC(C)C[C@H](NC(=O)[C@H](C)NC(=O)[C@H](CO)NC(=O)[C@H](CC(=O)O)NC(=O)[C@H](CCC(=O)O)NC(=O)[C@@H]1CCCN1)C(=O)N[C@@H](CC(C)C)C(=O)N[C@@H](CCC(=O)O)C(=O)N[C@@H](CC(=O)O)C(=O)N1CCC[C@H]1C(=O)N[C@@H](C)C(=O)NCC(=O)O [30.8]
2.05 µM: HLA DRB3*0101
> 5 µM: HLA DRB1*0405 | HLA DRB1*1302 | HLA DRB1*0404 | HLA DRB1*0401 | HLA DRB1*0701 | HLA DRB1*0101 | HLA DRB1*1101 | HLA DRB1*0301 | HLA DRB1*1501

APAAPANPGLII [34.2]
1.27 µM: HLA DRB1*0101
0.642 µM: HLA DRB1*1302
> 5 µM: HLA DRB1*0405 | HLA DRB1*0404 | HLA DRB1*0401 | HLA DRB3*0101 | HLA DRB1*0701 | HLA DRB1*1101 | HLA DRB1*0301 | HLA DRB1*1501

— PMC3312789 (Journal of Immunology (Baltimore, Md. : 1950), 2008)
